Assay results: patent US12077503B2, “Substituted cyclic amides and their use as herbicides” (FMC CORPORATION, priority 2015, dated 2024)

Tests used:
Format in all cases: in vivo
[1] = test system: ragweed (common ragweed, Ambrosia elatior); test: Test A preemergence; settings: Ambrosia artemisiifolia, pre-emergence, 240 h, 0 to 100 scale where 0 is no effect and 100 is complete control, read-out: Ragweed plant response rating
In short: (§1)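 Seeded soil received test chemicals as a preemergence directed spray, and seedlings at one to two leaves, 2–10 cm tall, received them postemergence, in a non-phytotoxic, surfactant-containing solvent mixture. Pots were held in a greenhouse for approximately 10 d, then rated for injury from 0, no effect, to 100, complete control.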

[2] = test system: ryegrass, Italian (Italian ryegrass, Lolium multiflorum); test: Test A preemergence; settings: Lolium multiflorum, pre-emergence, 240 h, 0 to 100 scale where 0 is no effect and 100 is complete control, read-out: Ryegrass, Italian plant response rating
In short: as §1

[3] = test system: giant foxtail (Setaria faberii); test: Test A preemergence; settings: Setaria faberi, pre-emergence, 240 h, 0 to 100 scale where 0 is no effect and 100 is complete control, read-out: Foxtail, Giant plant response rating
In short: as §1

Kochia (Kochia scoparia) [4] = test: Test A preemergence; settings: Bassia scoparia, pre-emergence, 240 h, 0 to 100 scale where 0 is no effect and 100 is complete control, read-out: Kochia plant response rating
In short: as §1

[5] = test system: barnyardgrass (Echinochloa crus-galli); test: Test A preemergence; settings: Echinochloa crus-galli, pre-emergence, 240 h, 0 to 100 scale where 0 is no effect and 100 is complete control, read-out: Barnyardgrass plant response rating
In short: as §1

[6] = test system: pigweed (Amaranthus retroflexus); test: Test A preemergence; settings: Amaranthus retroflexus, pre-emergence, 240 h, 0 to 100 scale where 0 is no effect and 100 is complete control, read-out: Pigweed plant response rating
[7] = test system: sedge, umbrella (small-flower umbrella sedge, Cyperus difformis); test: Test B flooded paddy test; settings: Cyperus difformis, 250 g ai/ha, Flood; 0 to 100 scale where 0 is no effect and 100 is complete control; read-out: Sedge, Umbrella plant response rating
In short: (§2)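 Plants at 2-leaf stage flooded to 3 cm above soil, with compounds applied directly to paddy water and that depth maintained. Plants kept in greenhouse 13–15 d. Visual rating versus controls on a 0 (no effect) to 100 (complete control) scale.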

rice (Oryra sativa) = test: Test B flooded paddy test; settings: Oryza sativa, 250 g ai/ha, Flood; 0 to 100 scale where 0 is no effect and 100 is complete control; read-out: Rice plant response rating
In short: as §2

[8] = test system: barnyardgrass (Echinochloa crus-galli); test: Test B flooded paddy test; settings: Echinochloa crus-galli, 250 g ai/ha, Flood; 0 to 100 scale where 0 is no effect and 100 is complete control; read-out: Barnyardgrass plant response rating
In short: as §2

[9] = test system: ducksalad (Heteranthera limosa); test: Test B flooded paddy test; settings: Heteranthera limosa, 250 g ai/ha, Flood; 0 to 100 scale where 0 is no effect and 100 is complete control; read-out: Ducksalad plant response rating
In short: as §2

[10] = test system: ragweed (common ragweed, Ambrosia elatior); test: Test A postemergence; settings: Ambrosia artemisiifolia, post-emergence, 240 h
In short: as §1

[11] = test system: ryegrass, Italian (Italian ryegrass, Lolium multiflorum); test: Test A postemergence; settings: Lolium multiflorum, post-emergence, 240 h
In short: as §1

[12] = test system: giant foxtail (Setaria faberii); test: Test A postemergence; settings: Setaria faberi, post-emergence, 240 h
In short: as §1

[13] = test system: blackgrass (Alopecurus myosuroides); test: Test A postemergence; settings: Alopecurus myosuroides, post-emergence, 240 h
In short: as §1

[14] = test system: wheat (Triticum aestivum); test: Test A postemergence; settings: Triticum aestivum, post-emergence, 240 h
In short: as §1

Kochia (Kochia scoparia) [15] = test: Test A postemergence; settings: Bassia scoparia, post-emergence, 240 h
In short: as §1

[16] = test system: barnyardgrass (Echinochloa crus-galli); test: Test A postemergence; settings: Echinochloa crus-galli, post-emergence, 240 h
In short: as §1

[17] = test system: Galium (catchweed bedstraw, Galium aparine); test: Test A postemergence; settings: Galium, post-emergence, 240 h
In short: as §1

corn (Zea mays) = test: Test A postemergence; settings: Zea mays, post-emergence, 240 h
In short: as §1

[18] = test system: pigweed (Amaranthus retroflexus); test: Test A postemergence; settings: Amaranthus retroflexus, post-emergence, 240 h
In short: as §1

[19] = 125 g ai/ha, preemergence, approx. 10 d

O=C1NC[C@H](c2csc3c2CCCC3)[C@H]1C(=O)Nc1cccc(F)c1F [Compound 1163]
0%: pest or weed control at 31 g/ha ([1]; 31 g ai/ha, Preemergence) | pest or weed control at 125 g/ha [1, 19] | pest or weed control at 31 g/ha ([2]; 31 g ai/ha, Preemergence) | pest or weed control at 125 g/ha [2, 19] | pest or weed control at 31 g/ha (Kochia (Kochia scoparia) [4]; 31 g ai/ha, Preemergence) | pest or weed control at 31 g/ha ([6]; 31 g ai/ha, Preemergence) | pest or weed control at 125 g/ha [6, 19] | pest or weed control at 250 g/ha [7] | pest or weed control at 250 g/ha (rice (Oryra sativa)) | pest or weed control at 125 g/ha ([10]; 125 g ai/ha, postemergence, visual injury vs untreated controls after approx. 10 d, 0 = no effect, 100 = complete control, read-out: Ragweed plant response rating (0 to 100 scale)) | pest or weed control at 31 g/ha ([10]; Postemergence, 31 g ai/ha, visual injury after approx. 10 d, 0 to 100 scale, 0 no effect, 100 complete control, read-out: Plant response rating, Ragweed) | pest or weed control at 125 g/ha ([11]; 125 g ai/ha, postemergence, visual injury vs untreated controls after approx. 10 d, 0 = no effect, 100 = complete control, read-out: Ryegrass, Italian plant response rating (0 to 100 scale)) | pest or weed control at 31 g/ha ([11]; Postemergence, 31 g ai/ha, visual injury after approx. 10 d, 0 to 100 scale, 0 no effect, 100 complete control, read-out: Plant response rating, Ryegrass, Italian) | pest or weed control at 125 g/ha ([12]; 125 g ai/ha, postemergence, visual injury vs untreated controls after approx. 10 d, 0 = no effect, 100 = complete control, read-out: Foxtail, Giant plant response rating (0 to 100 scale)) | pest or weed control at 31 g/ha ([12]; Postemergence, 31 g ai/ha, visual injury after approx. 10 d, 0 to 100 scale, 0 no effect, 100 complete control, read-out: Plant response rating, Foxtail, Giant) | pest or weed control at 31 g/ha ([13]; Postemergence, 31 g ai/ha, visual injury after approx. 10 d, 0 to 100 scale, 0 no effect, 100 complete control, read-out: Plant response rating, Blackgrass) | plant injury at 125 g/ha ([14]; 125 g ai/ha, postemergence, visual injury vs untreated controls after approx. 10 d, 0 = no effect, 100 = complete control, read-out: Wheat plant response rating (0 to 100 scale)) | plant injury at 31 g/ha ([14]; Postemergence, 31 g ai/ha, visual injury after approx. 10 d, 0 to 100 scale, 0 no effect, 100 complete control, read-out: Plant response rating, Wheat) | pest or weed control at 125 g/ha (Kochia (Kochia scoparia) [15]; 125 g ai/ha, postemergence, visual injury vs untreated controls after approx. 10 d, 0 = no effect, 100 = complete control, read-out: Kochia plant response rating (0 to 100 scale)) | pest or weed control at 31 g/ha (Kochia (Kochia scoparia) [15]; Postemergence, 31 g ai/ha, visual injury after approx. 10 d, 0 to 100 scale, 0 no effect, 100 complete control, read-out: Plant response rating, Kochia) | pest or weed control at 31 g/ha ([17]; Postemergence, 31 g ai/ha, visual injury after approx. 10 d, 0 to 100 scale, 0 no effect, 100 complete control, read-out: Plant response rating, Galium) | plant injury at 125 g/ha (corn (Zea mays); 125 g ai/ha, postemergence, visual injury vs untreated controls after approx. 10 d, 0 = no effect, 100 = complete control, read-out: Corn plant response rating (0 to 100 scale)) | Corn plant response rating (crop injury, 0 = no effect, 100 = complete kill) at 31 g/ha (corn (Zea mays); Postemergence, 31 g ai/ha, visual injury after approx. 10 d, 0 to 100 scale, 0 no effect, 100 complete control) | pest or weed control at 125 g/ha ([18]; 125 g ai/ha, postemergence, visual injury vs untreated controls after approx. 10 d, 0 = no effect, 100 = complete control, read-out: Pigweed plant response rating (0 to 100 scale)) | pest or weed control at 31 g/ha ([18]; Postemergence, 31 g ai/ha, visual injury after approx. 10 d, 0 to 100 scale, 0 no effect, 100 complete control, read-out: Plant response rating, Pigweed)
20%: pest or weed control at 125 g/ha (Kochia (Kochia scoparia) [4]; [19]) | pest or weed control at 125 g/ha ([13]; 125 g ai/ha, postemergence, visual injury vs untreated controls after approx. 10 d, 0 = no effect, 100 = complete control, read-out: Blackgrass plant response rating (0 to 100 scale)) | pest or weed control at 125 g/ha ([17]; 125 g ai/ha, postemergence, visual injury vs untreated controls after approx. 10 d, 0 = no effect, 100 = complete control, read-out: Galium plant response rating (0 to 100 scale))
70%: pest or weed control at 31 g/ha ([5]; 31 g ai/ha, Preemergence)
60%: pest or weed control at 125 g/ha [3, 19] | pest or weed control at 125 g/ha ([16]; 125 g ai/ha, postemergence, visual injury vs untreated controls after approx. 10 d, 0 = no effect, 100 = complete control, read-out: Barnyardgrass plant response rating (0 to 100 scale))
30%: pest or weed control at 250 g/ha [8] | pest or weed control at 31 g/ha ([16]; Postemergence, 31 g ai/ha, visual injury after approx. 10 d, 0 to 100 scale, 0 no effect, 100 complete control, read-out: Plant response rating, Barnyardgrass)
90%: pest or weed control at 125 g/ha [5, 19]
95%: pest or weed control at 250 g/ha [9]
10%: pest or weed control at 31 g/ha ([3]; 31 g ai/ha, Preemergence)
